Type in all cases: physicochemical
Data set [1] can be described thus: Brookfield viscosity of grafted siloxane derivatives. The protocol: (§1) The reactions were extremely exothermic and needed to be cooled by a dry ice bath once the temperature approached 30° C. For these reactions, an excess amount of terminal olefin substrate was used based on the equivalent weight (eqW) of hydrosiloxane. Reaction progress was monitored by FTIR as both the hydrosilane absorbance (2150 cm-1) and terminal olefin absorbance (1640 cm-1) disappeared while the carbonyl absorbance remained constant (1735 cm-1). Once the reaction was judged complete, the unreacted olefin starting material was removed by vacuum distillation. The resulting organofunctional siloxane oligomers were analyzed without further purification by 1H-NMR spectroscopy.
Into either a 50 or 100 ml three-necked, round-bottomed flask equipped with a magnetic stirrer, a thermocouple with a J-Kem controller, a heating mantle and a short path distillation apparatus with a nitrogen inlet was added the uC10 derivative and the hydrosilane oligomer. In most cases the reaction was run neat, however the uC10MEE-16-based reactions were two phase so that isopropanol (IPOH) was added to compatiblize the reactants. Once the catalyst was added (1 drop) at ambient temperatures, the temperature was carefully monitored. The reaction was gentle warmed by an air gun until about 30° C. when heating was discontinued and a dry ice bath was used to moderate the vigorous exotherm. Once the temperature had stabilized, then the heating mantle was used to hold the reaction temperature at 60° C. for the next few hours. The reaction's progress was easily monitored by FTIR as both the hydrosilane absorbance (2150 cm^−1) and the terminal olefin's absorbance (1640 cm^−1) disappeared while the carbonyl absorbance remained constant (1735 cm^−1). When the reactions were judged complete, they were typically subjected to reduced pressure to remove any excess reagents or solvents. The products were transferred into 2 oz glass bottles and remained liquids except for the uC16MEE-16-based materials that solidified. […]

Data set [2] in a line: Surface tension of grafted siloxane derivatives. The protocol:
as §1

Data set [3] is described as follows: Solubility in organic solvents.

Bounds are passed on as bounds.

Consider `COC(=O)CCCCCCCCC[Si](C)(O[Si](C)(C)C)O[Si](C)(C)C` [Compound 6], for which, in data set [1], the “Viscosity (25° C.)” value is listed as 7.1. In addition, the Surface Tension (20° C.) in data set [2] turned out to be 22.6 mN/m. The “Solubility in polar organic solvents (in words)” value in data set [3] (polar organic solvents) was “significantly more soluble”. The “Solubility (wt %) MEK” value in data set [3] (solvent MEK) was over 50 wt %. Moreover, the “Solubility (wt %) Acetone” value in data set [3] (solvent acetone) is reported as over 50 wt %. Besides, the “Solubility (wt %) Acetonitrile” value in data set [3] (solvent acetonitrile) was 13 wt %. The “Solubility (wt %) Ethylene Glycol” value in data set [3] (solvent ethylene glycol) came out at 6 wt %. Besides, the “Solubility (wt %) Heptanes” value in data set [3] (solvent heptanes) is recorded as over 50 wt %. Moreover, the “Solubility (wt %) Methanol” value in data set [3] (solvent methanol) was found to be 17 wt %.

Turning to `COCCOCCOCCOC(=O)CCCCCCCCC[Si](C)(O[Si](C)(C)C)O[Si](C)(C)C` [Compound 7], the “Viscosity (25° C.)” value in data set [1] came to 17. Also, the Surface Tension (20° C.) in data set [2] is 21.4 mN/m.

As to `C[Si](C)(C)O[Si](C)(CCCCCCCCCC(=O)OCCC(F)(F)C(F)(F)C(F)(F)C(F)(F)F)O[Si](C)(C)C` [Compound 9], in data set [1], the “Viscosity (25° C.)” value came out at 16. The compound further had a Surface Tension (20° C.) in data set [2] of 20.8 mN/m.

These data come from patent US12202942B2, “Functionalized silicone polymers and methods of making and using the same” (Wilmar Trading Pte. Ltd., priority 2018, dated 2025).
